Results published in patent US10112935B2, “Indazolyl thiadiazolamines and related compounds for inhibition of Rho-associated protein kinase and the treatment of disease” (Lycera Corporation, priority 2015, dated 2018).

What was measured:
[1] = molecular target: GST-tagged human ROCK1 catalytic domain 1-477 (Homo sapiens (Human), UniProt Q13464); assay: Inhibition of Rho-associated protein kinase isoform 1 (LANCE Ultra ULight-CREBtide FRET kinase assay); assay type: biochemical; settings: 30 μM was the highest concentration analyzed
Method in brief: (§1)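 Baculovirus-expressed kinase phosphorylated ULight-CREBtide for 90 min at room temperature before the reaction was stopped with 10 mM EDTA. Phospho-substrate was detected by TR-FRET with 1 nM Europium-anti-phospho-CREB (Ser133) antibody after 60 min at room temperature.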

[2] = molecular target: GST-tagged human ROCK2 catalytic domain 1-553 (Homo sapiens (Human), UniProt O75116); assay: Inhibition of Rho-associated protein kinase isoform 2 (LANCE Ultra ULight-CREBtide FRET kinase assay); assay type: biochemical; settings: for IC50: 30 μM was the highest concentration analyzed; for Selectivity for ROCK2 over ROCK1 (IC50 ROCK1 / IC50 ROCK2): selectivity ROCK2 vs ROCK1
Method in brief: as §1

Sequence of GST-tagged human ROCK2 catalytic domain 1-553 (O75116 1-553): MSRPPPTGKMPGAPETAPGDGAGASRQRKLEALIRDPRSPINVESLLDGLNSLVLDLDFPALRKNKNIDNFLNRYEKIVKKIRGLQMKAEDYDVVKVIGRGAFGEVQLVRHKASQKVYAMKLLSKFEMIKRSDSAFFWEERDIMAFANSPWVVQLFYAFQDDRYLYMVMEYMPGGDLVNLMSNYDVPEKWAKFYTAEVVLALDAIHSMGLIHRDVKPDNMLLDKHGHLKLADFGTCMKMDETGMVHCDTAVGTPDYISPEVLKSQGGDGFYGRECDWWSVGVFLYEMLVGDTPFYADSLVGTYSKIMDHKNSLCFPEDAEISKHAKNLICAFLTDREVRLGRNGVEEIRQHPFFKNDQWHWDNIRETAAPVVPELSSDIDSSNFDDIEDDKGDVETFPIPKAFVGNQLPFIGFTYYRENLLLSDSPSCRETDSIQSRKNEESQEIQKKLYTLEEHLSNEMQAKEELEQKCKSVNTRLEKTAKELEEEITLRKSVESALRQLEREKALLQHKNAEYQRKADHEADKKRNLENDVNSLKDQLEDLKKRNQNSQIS
Sequence of GST-tagged human ROCK1 catalytic domain 1-477 (Q13464 1-477): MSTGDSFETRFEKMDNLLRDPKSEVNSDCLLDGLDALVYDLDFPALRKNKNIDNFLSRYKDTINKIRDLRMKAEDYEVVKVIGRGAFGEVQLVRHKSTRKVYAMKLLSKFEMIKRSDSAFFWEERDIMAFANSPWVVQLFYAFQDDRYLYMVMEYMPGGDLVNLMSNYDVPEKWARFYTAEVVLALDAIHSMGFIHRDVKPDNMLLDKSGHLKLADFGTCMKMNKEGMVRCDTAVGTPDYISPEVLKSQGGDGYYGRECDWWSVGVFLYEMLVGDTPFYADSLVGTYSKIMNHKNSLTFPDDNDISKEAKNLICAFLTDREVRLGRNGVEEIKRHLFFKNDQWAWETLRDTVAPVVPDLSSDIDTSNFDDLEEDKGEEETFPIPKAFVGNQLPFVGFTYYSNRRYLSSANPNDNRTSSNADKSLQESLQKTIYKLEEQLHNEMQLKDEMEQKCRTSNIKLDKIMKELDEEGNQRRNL

| SMILES | IC50 [1] [µM] | IC50 [2] [µM] | Selectivity for ROCK2 over ROCK1 (IC50 ROCK1 / IC50 ROCK2) [2] |
| --- | --- | --- | --- |
| Cc1cccc(CNC(=O)c2cccc(-c3nnc(Nc4ccc5[nH]ncc5c4Cl)s3)c2)n1 [Example 75G] | < 1 | < 1 | <5 |
| c1cc(-c2nnc(Nc3ccc4[nH]ncc4c3)s2)cc(N2CCNCC2)c1 [Example 75H] | > 30 | 1 to 15 | >5 |
| Cn1cc(C(=O)Nc2cc(-c3nnc(Nc4ccc5[nH]ncc5c4)s3)ccn2)cn1 [Example 75I] | < 1 | < 1 | <5 |
| Cn1cc(C(=O)Nc2cccc(-c3nnc(Nc4ccc5[nH]nc(Cl)c5c4)s3)c2)cn1 [Example 75J] | > 30 | > 30 | – |
| CNCc1ccc(C(=O)Nc2cccc(-c3nnc(Nc4ccc5[nH]ncc5c4)s3)c2)cn1 [Example 75K] | < 1 | < 1 | >5 |
| CC(C)NC(=O)COc1cncc(-c2nnc(Nc3ccc4[nH]ncc4c3)s2)c1 [Example 75L] | > 30 | – | >75 |
| O=C(Nc1cccc(-c2nnc(Nc3ccc4[nH]ncc4c3F)s2)c1)c1c[nH]cn1 [Example 75N] | > 30 | > 30 | – |
| O=[N+]([O-])c1cccc(-c2nnc(Nc3ccc4[nH]ncc4c3)s2)c1 [Example 75O] | 1 to 15 | 1 to 15 | – |
| CN(C)Cc1cc(-c2ncco2)cc(-c2nnc(Nc3ccc4[nH]ncc4c3Cl)s2)c1 [Example 75P] | 1 to 15 | < 1 | >5 |
| CC1(C)CN=C(c2cccc(-c3nnc(Nc4ccc5[nH]ncc5c4Cl)s3)c2)O1 [Example 75Q] | 1 to 15 | < 1 | >5 |
| Cc1cccc(-c2cccc(-c3nnc(Nc4ccc5[nH]ncc5c4Cl)s3)c2)n1 [Example 75R] | > 30 | < 1 | >100 |
| CC(=O)Nc1cc(CC(=O)O)cc(-c2nnc(Nc3ccc4[nH]ncc4c3Cl)s2)c1 [Example 75S] | < 1 | < 1 | >5 |
| CC(C)(C)c1cn2cccc(-c3nnc(Nc4ccc5[nH]ncc5c4Cl)s3)c2n1 [Example 75T] | > 30 | > 30 | – |
| CN(c1nnc(-c2cccc(NC(=O)Cc3ccc(F)cc3)c2)s1)c1ccc2[nH]ncc2c1Cl [Example 75U] | > 30 | > 30 | – |
| Clc1c(Nc2nnc(-c3cccc4c3ncn4CCN3CCOCC3)s2)ccc2[nH]ncc12 [Example 75V] | > 30 | > 30 | – |
| Nc1nc(-c2nnc(Nc3ccc4[nH]ncc4c3Cl)s2)c[nH]1 [Example 75W] | < 1 | < 1 | <5 |
| NCCS(=O)(=O)Nc1cccc(-c2nnc(Nc3ccc4[nH]ncc4c3)s2)c1 [Example A-1] | 1 to 15 | 1 to 15 | <5 |
| CC(C)NCC(=O)Nc1cncc(-c2nnc(Nc3ccc4[nH]ncc4c3)s2)c1 [Example A-2] | 1 to 15 | < 1 | >5 |
| CN(C)CC(=O)Nc1cncc(-c2nnc(Nc3ccc4[nH]ncc4c3)s2)c1 [Example A-3] | 1 to 15 | < 1 | <5 |
| O=C(NCC(O)CO)c1cccc(-c2nnc(Nc3ccc4[nH]ncc4c3)s2)c1 (centres unmarked) [Example A-4] | 1 to 15 | 1 to 15 | <5 |
| Cn1cc(C(=O)Nc2cc(-c3nnc(Nc4ccc5[nH]ncc5c4)s3)ccc2C(=O)O)cn1 [Example A-5] | < 1 | < 1 | >5 |
| c1cc(-c2nnco2)cc(-c2nnc(Nc3ccc4[nH]ncc4c3)s2)c1 [Example A-6] | > 30 | > 30 | <5 |
| CC(C)NC(=O)COc1cncc(-c2nnc(Nc3ccc4[nH]ncc4c3)s2)c1 [Example A-7] | > 30 | < 1 | >50 |
| CCS(=O)(=O)Nc1cccc(-c2nnc(Nc3ccc4[nH]ncc4c3)s2)c1 [Example A-8] | > 30 | 1 to 15 | >5 |
| O=C(O)c1cccc(-c2nnc(Nc3ccc4[nH]ncc4c3)s2)c1 [Example A-9] | 15 to 30 | 1 to 15 | >5 |
| CN(CC(O)CO)C(=O)c1cccc(-c2nnc(Nc3ccc4[nH]ncc4c3)s2)c1 (centres unmarked) [Example A-10] | 15 to 30 | 1 to 15 | <5 |

| SMILES | IC50 [1] [µM] | IC50 [2] [µM] | Selectivity for ROCK2 over ROCK1 (IC50 ROCK1 / IC50 ROCK2) [2] |
| --- | --- | --- | --- |
| Cn1cc(C(=O)Nc2cccc(-c3nnc(Nc4ccc5[nH]ncc5c4Cl)s3)c2)cn1 [Example A-11] | > 30 | < 1 | >100 |
| OCCN(c1ccc2[nH]ncc2c1)c1nnc(-c2cnccn2)s1 [Example A-12] | > 30 | > 30 | <5 |
| Nc1cncc(-c2nnc(Nc3ccc4[nH]ncc4c3)s2)n1 [Example A-13] | > 30 | 1 to 15 | >5 |
| CCS(=O)(=O)Nc1cncc(-c2nnc(Nc3ccc4[nH]ncc4c3)s2)c1 [Example A-14] | 1 to 15 | 1 to 15 | >5 |
| Cn1cnc2c(-c3nnc(Nc4ccc5[nH]ncc5c4)s3)cccc21 [Example A-15] | < 1 | < 1 | <5 |
| CCn1cc(C(=O)Nc2cccc(-c3nnc(Nc4ccc5[nH]ncc5c4)s3)c2)cn1 [Example A-16] | < 1 | < 1 | >5 |
| c1cc(-c2cn[nH]c2)cc(-c2nnc(Nc3ccc4[nH]ncc4c3)s2)c1 [Example A-17] | > 30 | < 1 | >100 |
| CS(=O)(=O)Nc1cncc(-c2nnc(Nc3ccc4[nH]ncc4c3)s2)c1 [Example A-18] | 1 to 15 | 1 to 15 | <5 |
| CS(=O)(=O)Nc1cccc(-c2nnc(Nc3ccc4[nH]ncc4c3)s2)c1 [Example A-19] | > 30 | < 1 | >100 |
| O=C(Nc1cccc(-c2nnc(Nc3ccc4[nH]ncc4c3)s2)c1)c1cnn(CCO)c1 [Example A-20] | > 30 | < 1 | >100 |
| COc1cccc(-c2nnc(N(CCO)c3ccc4[nH]ncc4c3)s2)c1 [Example A-21] | 15 to 30 | 15 to 30 | <5 |
| O=C(O)COc1cccc(-c2nnc(Nc3ccc4[nH]ncc4c3)s2)c1 [Example A-22] | 1 to 15 | 1 to 15 | >5 |
| CC(C)NC(=O)COc1cccc(-c2nnc(Nc3ccc4[nH]ncc4c3)s2)c1 [Example A-23] | > 30 | < 1 | >50 |
| Nc1cncc(-c2nnc(Nc3ccc4[nH]ncc4c3)s2)c1 [Example A-24] | < 1 | < 1 | <5 |
| c1cnc(-c2nnc(Nc3ccc4[nH]ncc4c3)s2)cn1 [Example A-25] | > 30 | 1 to 15 | >5 |
| c1cc(-c2cnco2)cc(-c2nnc(Nc3ccc4[nH]ncc4c3)s2)c1 [Example A-26] | > 30 | > 30 | <5 |
| Cn1cc(C(=O)Nc2ccc(-c3nnc(Nc4ccc5[nH]ncc5c4)s3)cc2)cn1 [Example A-27] | > 30 | > 30 | <5 |
| CC1CCN(C(=O)Nc2cccc(-c3nnc(Nc4ccc5[nH]ncc5c4)s3)c2)C1 (centres unmarked) [Example A-28] | < 1 | < 1 | >5 |
| c1cc2[nH]ncc2cc1Nc1nnc(C2CNCCN2)s1 (centres unmarked) [Example A-29] | 1 to 15 | 1 to 15 | <5 |
| c1cc(-c2ncco2)cc(-c2nnc(Nc3ccc4[nH]ncc4c3)s2)c1 [Example A-30] | > 30 | < 1 | >100 |
| O=C(Nc1cccc(-c2nnc(Nc3ccc4[nH]ncc4c3)s2)n1)c1c[nH]cn1 [Example A-31] | > 30 | < 1 | >100 |
| O=C(Nc1cc(-c2nnc(Nc3ccc4[nH]ncc4c3)s2)ccn1)c1c[nH]cn1 [Example A-32] | > 30 | < 1 | >100 |
| c1cc2[nH]ncc2cc1Nc1nnc(C2CCCNC2)s1 (centres unmarked) [Example A-33] | 15 to 30 | 1 to 15 | <5 |
| COc1cccc(-c2nnc(Nc3ccc4[nH]ncc4c3)s2)c1 [Example A-34] | > 30 | < 1 | >100 |
| NC1CCN(C(=O)Nc2cccc(-c3nnc(Nc4ccc5[nH]ncc5c4)s3)c2)C1 (centres unmarked) [Example A-35] | 1 to 15 | < 1 | <5 |
| O=C(c1ccnnc1)N1CCN(c2nnc(Nc3ccc4[nH]ncc4c3)s2)CC1 [Example A-36] | > 30 | 1 to 15 | >5 |
